# Laboratory results as given in patent US20220144838A1, “Compounds as Inhibitors of Macrophage Migration Inhibitory Factor” (NANJING IMMUNOPHAGE BIOTECH CO., LTD., priority 2019, published 2022).
# Target: T1, MIF (Homo sapiens, UniProt P14174)
# T1 sequence (P14174 2-115 limits assumed): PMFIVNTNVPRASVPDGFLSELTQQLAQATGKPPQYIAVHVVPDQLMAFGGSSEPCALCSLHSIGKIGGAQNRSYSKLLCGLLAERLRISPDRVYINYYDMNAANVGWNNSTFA
# Experiment: MIF tautomerase assay using pHPP as substrate
# Format: biochemical
# Conditions: FIGS. 1-5; mean of multiple test results; read-out: pIC50 MIF tautomerase activity (converted)
# How it was run: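 Cell-free keto-to-enol tautomerization of pHPP, enol product detected spectrophotometrically as borate complex. Final 3 nM MIF and 1.5 mM ketonic pHPP in DPBS/boric acid buffer with 0.025% BSA and 300 μM CHAPS, pH 6.0, room temperature; initial rates from absorbance slopes give mean pIC50.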
row,IC50 [nM],SMILES
1,≤ 100,"O=C(O)Cn1cnc2c(-n3ncc4cc(CO)ccc43)nc(N3CCN(c4ccc(O)cc4)CC3)nc21 [Example 109, 2-(6-(5-(hydroxymethyl)-1H-indazol-1-yl)-2-(4-(4-hydroxyphenyl)piperazin-1-yl)-9H-purin-9-yl)acetic acid]"

# Same assay, conditions: inhibition of the MIF enzyme in vitro; mean of multiple test results; read-out: Tautomerase Inhibition pIC50 (converted)
row,SMILES,IC50 [nM]
1,"OCCn1cnc2c(-n3ncc4ccccc43)nc(N3CCC(O)(c4ccc(O)cc4)CC3)nc21 [Example 158, 1-(9-(2-hydroxyethyl)-6-(1H-indazol-1-yl)-9H-purin-2-yl)-4-(4-hydroxyphenyl)piperidin-4-ol]",100 to 977
2,"COc1ncccc1-n1cnc2c(N)nc(N3CCN(c4ccc(O)cc4)CC3)nc21 [Example 79, 4-(4-(6-amino-9-(2-methoxypyridin-3-yl)-9H-purin-2-yl)piperazin-1-yl)phenol]",> 10000
3,"CCOC(=O)c1nn(-c2nc(N3CCN(c4ccc(O)cc4)CC3)nc3c2ncn3CC(=O)O)c2ccccc12 [Example 33, 2-(6-(3-(ethoxycarbonyl)-1H-indazol-1-yl)-2-(4-(4-hydroxyphenyl)piperazin-1-yl)-9H-purin-9-yl)acetic acid]",10 to 97.7
4,"CN1CCN(c2nc(N3CCN(c4ccc(O)cc4)CC3)nc3c2ncn3-c2ccncc2)CC1=O [Example 175, 4-(2-(4-(4-hydroxyphenyl)piperazin-1-yl)-9-(pyridin-4-yl)-9H-purin-6-yl)-1-methylpiperazin-2-one]",10 to 97.7
5,"CC(C)(C(=O)O)n1cnc2c(-n3ncc4ccccc43)nc(N3CCN(c4ccc(O)cn4)CC3)nc21 [Example 141, 2-(2-(4-(5-hydroxypyridin-2-yl)piperazin-1-yl)-6-(1H-indazol-1-yl)-9H-purin-9-yl)-2-methylpropanoic acid]",10 to 97.7
6,"O=C(O)Cn1cnc2c(N3N=CC4C=CC=CC43)nc(N3CCN(c4ccccc4)CC3)nc21 (stereo not shown) [Example 48, 2-(6-(3a,7a-dihydro-1H-indazol-1-yl)-2-(4-phenylpiperazin-1-yl)-9H-purin-9-yl)acetic acid]",100 to 977
7,"CCC(CO)N(C)c1nc(N2CCN(c3ccc(O)cc3)CC2)nc2c1ncn2-c1cccnc1 (stereo not shown) [Example 169, 4-(4-(6-((1-hydroxybutan-2-yl)(methyl)amino)-9-(pyridin-3-yl)-9H-purin-2-yl)piperazin-1-yl)phenol]",10 to 97.7
8,"COc1ccc(-n2cnc3c(N)nc(N4CCN(c5ccc(O)cc5)CC4)nc32)c(OC)n1 [Example 84, 4-(4-(6-amino-9-(2,6-dimethoxypyridin-3-yl)-9H-purin-2-yl)piperazin-1-yl)phenol]",1000 to 9770
9,"Nc1nc(N2CCN(c3ccc(O)cc3)CC2)nc2c1ncn2C1CCCC(C(=O)O)C1 (mixture of isomers) [Example 189, 3-(6-amino-2-(4-(4-hydroxyphenyl)piperazin-1-yl)-9H-purin-9-yl)cyclohexane-1-carboxylic acid]",> 10000
10,"CCCS(=O)(=O)NC(=O)Cn1cnc2c(-n3ncc4ccccc43)nc(N3CCN(c4ccc(O)cc4)CC3)nc21 [Example 56, 2-(2-(4-(4-hydroxyphenyl)piperazin-1-yl)-6-(1H-indazol-1-yl)-9H-purin-9-yl)-N-(propylsulfonyl)acetamide]",100 to 977
11,"N#Cc1ccc2c(cnn2-c2nc(N3CCN(c4ccc(O)cc4)CC3)nc3c2ncn3CC(=O)O)c1 [Example 52, 2-(6-(5-cyano-1H-indazol-1-yl)-2-(4-(4-hydroxyphenyl)piperazin-1-yl)-9H-purin-9-yl)acetic acid]",10 to 97.7
12,"CN(C)Cc1cccc2c1cnn2-c1nc(N2CCN(c3ccc(O)cc3)CC2)nc2c1ncn2CC(=O)O [Example 143, 2-(6-(4-((dimethylamino)methyl)-1H-indazol-1-yl)-2-(4-(4-hydroxyphenyl)piperazin-1-yl)-9H-purin-9-yl)acetic acid]",100 to 977
13,"Cn1cc(-n2cnc3c(N)nc(N4CCN(c5ccc(O)cc5)CC4)nc32)cn1 [Example 88, 4-(4-(6-amino-9-(1-methyl-1H-pyrazol-4-yl)-9H-purin-2-yl)piperazin-1-yl)phenol]",1000 to 9770
14,"NC(=O)c1ccc(C2(O)CN(c3nc(N)c4ncn(-c5ccncc5)c4n3)C2)cc1 [Example 212, 4-(1-(6-amino-9-(pyridin-4-yl)-9H-purin-2-yl)-3-hydroxyazetidin-3-yl)benzamide]",1000 to 9770
15,"Nc1nc(N2CCN(c3ccc(O)cc3)CC2)nc2c1ncn2-c1ccccc1F [Example 71, 4-(4-(6-amino-9-(2-fluorophenyl)-9H-purin-2-yl)piperazin-1-yl)phenol]",1000 to 9770
16,"Cc1nc(N2CCC(O)(c3ccc(O)cc3)CC2)nc2c1ncn2-c1cccnc1 [Example 204, 4-(4-hydroxyphenyl)-1-(6-methyl-9-(pyridin-3-yl)-9H-purin-2-yl)piperidin-4-ol]",10 to 97.7
17,"CC(C)S(=O)(=O)NC(=O)Cn1cnc2c(-n3ncc4ccccc43)nc(N3CCN(c4ccc(O)cc4)CC3)nc21 [Example 54, 2-(2-(4-(4-hydroxyphenyl)piperazin-1-yl)-6-(1H-indazol-1-yl)-9H-purin-9-yl)-N-(isopropylsulfonyl)acetamide]",100 to 977
18,"Nc1nc(N2CCN(c3ccc(CO)cc3)CC2)nc2c1ncn2-c1ccncc1 [Example 192, (4-(4-(6-amino-9-(pyridin-4-yl)-9H-purin-2-yl)piperazin-1-yl)phenyl)methanol]",> 10000
19,"Nc1nc(N2CCC(O)(c3ccc(F)cc3)CC2)nc2c1ncn2-c1cccnc1 [Example 209, 1-(6-amino-9-(pyridin-3-yl)-9H-purin-2-yl)-4-(4-fluorophenyl)piperidin-4-ol]",1000 to 9770
20,"O=C(O)Cn1cnc2c(-n3cnc4ccccc43)nc(N3CCN(c4ccc(O)cc4)CC3)nc21 [Example 41, 2-(6-(1H-benzo[d]imidazol-1-yl)-2-(4-(4-hydroxyphenyl)piperazin-1-yl)-9H-purin-9-yl)acetic acid]",10 to 97.7

# Results, then the compound that gave them:
row,IC50 [nM],SMILES
1,10 to 97.7,"O=C(O)Cn1cnc2c(-n3ncc4cc(CO)ccc43)nc(N3CCN(c4ccc(O)cc4)CC3)nc21 [Example 109, 2-(6-(5-(hydroxymethyl)-1H-indazol-1-yl)-2-(4-(4-hydroxyphenyl)piperazin-1-yl)-9H-purin-9-yl)acetic acid]"
2,> 10000,"Nc1nc(N2CC(O)(c3ccc(CO)cc3)C2)nc2c1ncn2-c1ccncc1 [Example 214, 1-(6-amino-9-(pyridin-4-yl)-9H-purin-2-yl)-3-(4-(hydroxymethyl)phenyl) azetidin-3-ol]"
3,> 10000,"Cc1nc(N2CCN(c3ccc(O)cc3)CC2)nc2c1ncn2C(CO)CO [Example 110, 2-(2-(4-(4-hydroxyphenyl)piperazin-1-yl)-6-methyl-9H-purin-9-yl)propane-1,3-diol]"
4,10 to 97.7,"O=C(O)Cn1cnc2c(-n3nnc4ccccc43)nc(N3CCN(c4ccc(O)cc4)CC3)nc21 [Example 24, 2-(6-(1H-benzo[d][1,2,3]triazol-1-yl)-2-(4-(4-hydroxyphenyl)piperazin-1-yl)-9H-purin-9-yl)acetic acid]"
5,100 to 977,"Cc1nc(N2CCN(c3ccc(O)cc3)CC2)nc2c1ncn2-c1cccnc1 [Example 59, 4-(4-(6-methyl-9-(pyridin-3-yl)-9H-purin-2-yl)piperazin-1-yl)phenol]"
6,100 to 977,"CC(C(=O)O)n1cnc2c(-n3cc4ccccc4n3)nc(N3CCN(c4ccc(O)cc4)CC3)nc21 (stereo not shown) [Example 126, 2-(2-(4-(4-hydroxyphenyl)piperazin-1-yl)-6-(2H-indazol-2-yl)-9H-purin-9-yl)propanoic acid]"
7,10 to 97.7,"Oc1ccc(N2CCN(c3nc(N4C[C@H](O)[C@@H](O)C4)c4ncn(-c5ccncc5)c4n3)CC2)cc1 [Example 171, (3S,4S)-1-(2-(4-(4-hydroxyphenyl)piperazin-1-yl)-9-(pyridin-4-yl)-9H-purin-6-yl)pyrrolidine-3,4-diol]"
8,100 to 977,"C#CCn1cnc2c(-n3ncc4ccccc43)nc(N3CCC(O)(c4ccc(O)cc4)CC3)nc21 [Example 222, 1-(6-(1H-indazol-1-yl)-9-(prop-2-yn-1-yl)-9H-purin-2-yl)-4-(4-hydroxyphenyl)piperidin-4-ol]"
9,100 to 977,"COc1cc(-n2cnc3c(N)nc(N4CCN(c5ccc(O)cc5)CC4)nc32)ccn1 [Example 82, 4-(4-(6-amino-9-(2-methoxypyridin-4-yl)-9H-purin-2-yl)piperazin-1-yl)phenol]"
10,> 10000,"O=C(O)Cn1cnc2c(-n3c(CO)nc4ccccc43)nc(N3CCN(c4ccc(O)cc4)CC3)nc21 [Example 29, 2-(6-(2-(hydroxymethyl)-1H-benzo[d]imidazol-1-yl)-2-(4-(4-hydroxyphenyl)piperazin-1-yl)-9H-purin-9-yl)acetic acid]"
11,100 to 977,"NC(=O)Cn1cnc2c(-n3ncc4ccccc43)nc(N3CCN(c4ccc(O)cc4)CC3)nc21 [Example 47, 2-(2-(4-(4-hydroxyphenyl)piperazin-1-yl)-6-(1H-indazol-1-yl)-9H-purin-9-yl)acetamide]"
12,> 10000,"OCCn1cnc2c(N[C@@H]3CCc4ccccc43)nc(N3CCN(c4ccc(O)cc4)CC3)nc21 [Example 6, (R)-4-(4-(6-((2,3-dihydro-1H-inden-1-yl)amino)-9-(2-hydroxyethyl)-9H-purin-2-yl)piperazin-1-yl)phenol]"
13,1000 to 9770,"Oc1ccc(N2CCN(c3nc(NCc4ccccc4)c4ncn(-c5cccnc5)c4n3)CC2)cc1 [Example 90, 4-(4-(6-(benzylamino)-9-(pyridin-3-yl)-9H-purin-2-yl)piperazin-1-yl)phenol]"
14,> 10000,"Nc1nc(N2CC(O)(c3cn[nH]c3)C2)nc2c1ncn2-c1ccncc1 [Example 199, 1-(6-amino-9-(pyridin-4-yl)-9H-purin-2-yl)-3-(1H-pyrazol-4-yl)azetidin-3-ol]"
15,1000 to 9770,"O=C(O)Cn1cnc2nc(N3CCN(c4ccc(O)cn4)CC3)nc(-n3ncc4ccccc43)c21 [Example 22, 2-(2-(4-(5-hydroxypyridin-2-yl)piperazin-1-yl)-6-(1H-indazol-1-yl)-7H-purin-7-yl)acetic acid]"
16,1000 to 9770,"Cc1nc(N2CCN(c3ccc(O)cc3)CC2)nc2c1ncn2-c1cccc(O)c1Cl [Example 37, 2-chloro-3-(2-(4-(4-hydroxyphenyl)piperazin-1-yl)-6-methyl-9H-purin-9-yl)phenol]"
